The source made the active and inactive calls.
Experiments:
[1] = target: T1, Kappa-type opioid receptor (Homo sapiens, UniProt P41145); assay type: functional
[2] = Vero E6 cell cytotoxicity, dose response, cytotoxicity control for non-replicating M. tuberculosis project, secondary assay (AID 492998); assay type: functional, VeroE6; conditions: Vero C1008
cells = assay type: functional
[3] = target: T2, Microphthalmia-associated transcription factor (Homo sapiens, UniProt O75030); test: reducers of TRPM1 reporter luminescence, concentration series – cell-based, SK-MEL-5, cherry-picked, set 3, MITF inhibitor project, dose response (AID 493073); assay type: functional;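 further: SK-MEL-5 melanoma cells with luciferase driven by the MITF target TRPM1 promoter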
T2 sequence (O75030 whole entry): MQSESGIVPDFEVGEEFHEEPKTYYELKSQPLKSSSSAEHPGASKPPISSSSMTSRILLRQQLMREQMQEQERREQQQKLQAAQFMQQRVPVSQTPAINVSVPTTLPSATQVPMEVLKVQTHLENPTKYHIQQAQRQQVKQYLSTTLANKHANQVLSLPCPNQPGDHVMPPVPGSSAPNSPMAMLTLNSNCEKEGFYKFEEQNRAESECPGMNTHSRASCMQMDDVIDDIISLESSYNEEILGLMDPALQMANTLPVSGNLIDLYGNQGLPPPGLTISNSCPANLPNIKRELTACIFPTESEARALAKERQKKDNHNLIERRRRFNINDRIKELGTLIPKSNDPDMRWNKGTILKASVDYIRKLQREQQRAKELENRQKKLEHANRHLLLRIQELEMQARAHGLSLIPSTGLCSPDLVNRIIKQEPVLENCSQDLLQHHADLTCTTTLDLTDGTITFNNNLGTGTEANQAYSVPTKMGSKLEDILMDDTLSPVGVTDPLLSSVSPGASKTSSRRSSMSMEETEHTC

Beta-galactosidase [4] = target: T3, Beta-galactosidase (Escherichia coli, UniProt Q8VNN2); test: PubChem AID 485352; assay type: functional
[5] = THP-1 cell cytotoxicity, dose response, cytotoxicity control for non-replicating M. tuberculosis project (AID 489025); assay type: functional
[6] = target: T1, Kappa-type opioid receptor; assay type: functional; remark: listed apart in the source
Nonstructural protein 1 = Nonstructural protein 1 (Influenza A virus, UniProt Q194T2); assay type: functional, Influenza A virus (A/California/07/2009(H1N1))
[7] = target: T4, Type-1 angiotensin II receptor (Homo sapiens, UniProt P30556); test: antagonism of angiotensin II type 1 receptor – cell-based, uHTS hits, selectivity assay for APJ receptor antagonist project, dose response (AID 463214); assay type: functional;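 further: antagonist potency against angiotensin II stimulated AT1 response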
T4 sequence (P30556 whole entry): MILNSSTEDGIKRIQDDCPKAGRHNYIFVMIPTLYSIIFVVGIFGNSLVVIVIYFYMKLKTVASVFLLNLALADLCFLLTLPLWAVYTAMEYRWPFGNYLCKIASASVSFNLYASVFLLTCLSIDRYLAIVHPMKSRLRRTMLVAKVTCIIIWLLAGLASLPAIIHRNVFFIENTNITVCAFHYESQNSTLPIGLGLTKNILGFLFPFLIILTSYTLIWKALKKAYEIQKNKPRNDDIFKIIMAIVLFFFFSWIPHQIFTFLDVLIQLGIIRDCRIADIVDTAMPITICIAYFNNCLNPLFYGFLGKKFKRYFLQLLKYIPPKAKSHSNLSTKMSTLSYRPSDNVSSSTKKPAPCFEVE

[8] = viability loss in THP-1 monocytes – THP-1 cells, cytotoxicity control for Vif-APOBEC3G degradation inhibitor project, dose response (AID 1117359); assay type: functional; conditions: THP-1
[9] = HepG2 cell cytotoxicity, dose response, cytotoxicity control for non-replicating M. tuberculosis project (AID 489018); assay type: functional; conditions: Mycobacterium tuberculosis
Beta-galactosidase [10] = target: T3, Beta-galactosidase; assay type: functional
INS1 = test: INS-1E survival protection against cytokine death – cell-based, luminescence, retest, dose response (AID 449756); assay type: functional; conditions: Rattus norvegicus;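 further: cell death triggered by IL-1 beta plus TNF-alpha plus IFN-gamma mixture; protective hits raise ATP signal compared with cytokine alone wells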
[11] = target: Cystic fibrosis transmembrane conductance regulator/Golgi-associated PDZ and coiled-coil motif-containing protein (Homo sapiens, UniProt P13569+Q9HD26); test: potency against CAL PDZ-peptide interaction – biochemical, fluorescence polarization, Cerulean-tagged CAL PDZ, cherry-picks, dose response (AID 504773)
Sequence of Cystic fibrosis transmembrane conductance regulator/Golgi-associated PDZ and coiled-coil motif-containing protein (P13569 whole entry, other chains not shown): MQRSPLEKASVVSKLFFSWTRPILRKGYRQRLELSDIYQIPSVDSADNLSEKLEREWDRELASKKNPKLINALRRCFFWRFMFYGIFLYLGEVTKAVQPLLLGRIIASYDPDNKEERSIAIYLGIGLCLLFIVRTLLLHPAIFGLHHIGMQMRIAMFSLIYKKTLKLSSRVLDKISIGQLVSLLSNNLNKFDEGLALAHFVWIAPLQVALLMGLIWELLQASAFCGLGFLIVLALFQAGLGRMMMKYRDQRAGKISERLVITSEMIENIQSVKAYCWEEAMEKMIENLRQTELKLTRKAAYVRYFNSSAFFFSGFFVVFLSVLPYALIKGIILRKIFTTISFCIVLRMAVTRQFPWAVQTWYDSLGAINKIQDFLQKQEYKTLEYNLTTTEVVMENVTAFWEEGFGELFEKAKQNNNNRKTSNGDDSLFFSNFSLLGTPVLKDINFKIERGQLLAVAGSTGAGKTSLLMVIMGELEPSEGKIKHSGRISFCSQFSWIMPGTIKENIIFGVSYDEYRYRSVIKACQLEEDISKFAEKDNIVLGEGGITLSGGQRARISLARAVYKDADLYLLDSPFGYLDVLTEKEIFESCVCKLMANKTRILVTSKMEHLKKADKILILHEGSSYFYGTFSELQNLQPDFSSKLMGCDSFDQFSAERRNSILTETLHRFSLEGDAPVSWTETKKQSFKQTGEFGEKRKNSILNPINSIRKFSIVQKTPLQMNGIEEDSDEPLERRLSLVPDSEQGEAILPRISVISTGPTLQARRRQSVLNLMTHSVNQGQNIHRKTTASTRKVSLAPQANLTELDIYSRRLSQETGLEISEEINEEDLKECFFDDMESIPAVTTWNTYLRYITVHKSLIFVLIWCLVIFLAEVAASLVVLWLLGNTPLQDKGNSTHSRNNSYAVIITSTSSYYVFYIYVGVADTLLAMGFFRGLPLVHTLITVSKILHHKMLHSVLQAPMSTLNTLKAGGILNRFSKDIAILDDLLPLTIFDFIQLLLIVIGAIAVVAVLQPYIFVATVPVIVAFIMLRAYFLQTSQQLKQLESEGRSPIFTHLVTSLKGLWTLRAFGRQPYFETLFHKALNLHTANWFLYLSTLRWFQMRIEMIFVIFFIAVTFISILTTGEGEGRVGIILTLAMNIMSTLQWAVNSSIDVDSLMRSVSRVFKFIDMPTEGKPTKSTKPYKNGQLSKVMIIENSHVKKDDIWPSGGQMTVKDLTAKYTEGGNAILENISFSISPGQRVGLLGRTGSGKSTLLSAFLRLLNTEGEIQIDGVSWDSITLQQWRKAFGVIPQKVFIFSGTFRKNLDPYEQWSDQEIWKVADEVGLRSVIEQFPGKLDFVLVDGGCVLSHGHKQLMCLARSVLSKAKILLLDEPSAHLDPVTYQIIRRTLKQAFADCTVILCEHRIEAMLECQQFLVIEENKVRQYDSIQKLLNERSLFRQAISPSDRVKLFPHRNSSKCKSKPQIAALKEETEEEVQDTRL

T3 sequence (Q8VNN2 whole entry): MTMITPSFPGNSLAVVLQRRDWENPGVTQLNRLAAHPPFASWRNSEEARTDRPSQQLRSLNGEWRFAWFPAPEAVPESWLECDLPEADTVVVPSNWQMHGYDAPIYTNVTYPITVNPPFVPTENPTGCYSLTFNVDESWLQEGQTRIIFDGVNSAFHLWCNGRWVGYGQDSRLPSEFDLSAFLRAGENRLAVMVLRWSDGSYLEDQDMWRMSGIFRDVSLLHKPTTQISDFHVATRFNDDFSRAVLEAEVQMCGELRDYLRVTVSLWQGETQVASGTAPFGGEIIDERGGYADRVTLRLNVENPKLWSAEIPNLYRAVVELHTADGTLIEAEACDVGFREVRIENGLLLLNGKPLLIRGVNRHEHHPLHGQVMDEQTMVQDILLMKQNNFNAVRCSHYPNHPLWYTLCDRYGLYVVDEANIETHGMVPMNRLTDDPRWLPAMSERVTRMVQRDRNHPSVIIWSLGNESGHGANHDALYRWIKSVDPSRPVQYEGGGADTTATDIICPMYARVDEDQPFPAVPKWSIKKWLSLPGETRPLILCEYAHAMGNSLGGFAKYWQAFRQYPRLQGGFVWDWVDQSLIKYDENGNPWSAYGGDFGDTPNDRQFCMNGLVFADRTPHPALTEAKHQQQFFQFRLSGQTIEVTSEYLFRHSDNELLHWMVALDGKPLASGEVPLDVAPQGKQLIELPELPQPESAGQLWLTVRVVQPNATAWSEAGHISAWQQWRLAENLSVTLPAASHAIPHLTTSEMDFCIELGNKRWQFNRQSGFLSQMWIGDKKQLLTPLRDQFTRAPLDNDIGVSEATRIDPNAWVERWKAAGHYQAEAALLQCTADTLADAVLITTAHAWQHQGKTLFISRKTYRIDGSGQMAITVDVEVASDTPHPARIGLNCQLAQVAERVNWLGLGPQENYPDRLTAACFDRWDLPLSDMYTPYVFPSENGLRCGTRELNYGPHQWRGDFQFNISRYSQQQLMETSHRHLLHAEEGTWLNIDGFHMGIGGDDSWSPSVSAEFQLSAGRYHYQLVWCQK
T1 sequence (P41145 whole entry): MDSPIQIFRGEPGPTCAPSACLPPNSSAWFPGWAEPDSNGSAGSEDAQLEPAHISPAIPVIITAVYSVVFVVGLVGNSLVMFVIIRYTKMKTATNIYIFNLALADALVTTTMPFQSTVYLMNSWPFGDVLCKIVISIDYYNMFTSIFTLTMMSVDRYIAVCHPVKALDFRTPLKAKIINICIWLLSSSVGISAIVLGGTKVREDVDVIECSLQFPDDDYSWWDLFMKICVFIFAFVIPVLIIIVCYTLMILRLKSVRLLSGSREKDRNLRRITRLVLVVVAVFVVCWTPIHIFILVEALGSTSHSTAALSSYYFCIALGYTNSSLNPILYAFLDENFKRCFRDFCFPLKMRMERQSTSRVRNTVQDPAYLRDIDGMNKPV
Sequence of Nonstructural protein 1 (Q194T2 whole entry): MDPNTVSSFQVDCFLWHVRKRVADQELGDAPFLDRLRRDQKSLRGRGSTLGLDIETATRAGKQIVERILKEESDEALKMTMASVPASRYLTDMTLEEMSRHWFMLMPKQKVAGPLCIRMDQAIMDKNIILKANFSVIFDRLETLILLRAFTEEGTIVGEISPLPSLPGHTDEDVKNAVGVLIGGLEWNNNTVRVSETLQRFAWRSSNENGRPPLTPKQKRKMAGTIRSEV

## C/C(=N\NC(=O)C(C)Oc1ccc([N+](=O)[O-])cc1)c1ccccn1 (centres undefined)
[1]
  IC50: > 32 µM
[2]
  CC50: 3.54 µM (active)
cells
  IC50: 6.28 µM (active)
[3]
  AC50: 2.38 µM (active)
Beta-galactosidase [4]
  EC50: > 40 µM (inactive)
[5]
  CC50: 1.54 µM (active)
[6]
  IC50: 3.19 µM (active)
Nonstructural protein 1
  IC50: 6.88 µM (active)
[7]
  IC50: 9.48 µM (active)
[8]
  CC50: 1.8 µM (active)
[9]
  CC50: 8.26 µM (active)
Beta-galactosidase [10]
  EC50: > 31.5 µM (inactive)
INS1
  AC50: 1.12 µM (active)

## Cc1sc(NC(=O)c2ccco2)c(C(Nc2ccccn2)c2ccccc2)c1C (centres undefined)
[11]
  AC50: 60.1 µM (active)

— ChEMBL document CHEMBL1201862, “PubChem BioAssay data set” (2004)
